Assay results taken from patent US20150315241A1, “Antibiotic Peptides” (priority 2007, published 2015).
Values after ≈ are worked out from the molar mass of the structure shown. Where a SMILES comes first, the peptide text is derived from it. Where no end group is shown, it is not given here. [ ]: non-standard residue; d: D form. The star is where a group is joined. Orn(α-tetramethylguanidino) = CN(C)C(=N[C@@H](CCCN)C(=O)*)N(C)C; Orn = NCCC[C@H](N)C(=O)O

What was measured:
[1] = In vivo distribution of fluorescent-labelled peptide (imaging); set-up: species or system female Balb/c mice; details: mice, 40 μg i.p., 60-65 min
Method: The in vivo distribution was measured in mice using fluorescent-labelled peptides derivatives.
Near-infrared absorbing fluorescent dye Dy675 (Dyomics GmbH, Jena, Germany) was activated with DIC and coupled to the N-terminus of the peptide derivatives after completion of the solid phase peptide synthesis (see example 1). Afterwards the peptides were cleaved with TFA and purified by RP-HPLC (see example 1).
Forty μg of the labelled peptide derivatives were injected subcutaneously (sc) or intra-peritional (ip) into shaved and isoflurane anesthetized female Balb/c mice. The animals were placed into the fluorescence microscope chamber under continuous isoflurane exposure. Fluorescence exposure pictures were taken with an IVIS microscope set to 695 nm emission wavelength at every minute in the first 10 min after peptide addition and every 5 min afterwards until 65 min.

[2] = tested on: E. coli 45849; assay: Growth inhibition assay (MIC); assay type: cell-based, Escherichia coli; details: multidrug resistant strain; 1% TSB, 37° C., 20 hrs
Summary of the method: (§1)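 MIC by growth inhibition: overnight NB culture → 5×10^6 CFU/mL in 1% TSB; peptide 2-fold series, final 125 μg/mL to 60 ng/mL; 37° C., 20 hrs; OD595. n=3.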

[3] = tested on: S. typhi S5; assay type: cell-based, Salmonella typhi; details: S5, 20 h
Summary of the method: as §1

[4] = tested on: E. coli D31; assay type: cell-based, Escherichia coli; details: D31, 20 h
Summary of the method: as §1

[5] = tested on: K. Pneumonia 123132; assay: Growth inhibition assay (MIC); assay type: cell-based, Klebsiella pneumoniae; details: multidrug resistant strain; 1% TSB, 37° C., 20 hrs
Summary of the method: as §1

[6] = tested on: K. Pneumonia K6, ATCC 700603; assay: Growth inhibition assay (MIC); assay type: cell-based, Klebsiella pneumoniae; details: multidrug resistant strain; 1% TSB, 37° C., 20 hrs
Summary of the method: as §1

[7] = tested on: S. enterica subsp. Enterica serovar. typhi G10215 ATCC 700408; assay type: cell-based, Salmonella enterica; details: ATCC 700408, 20 h
Summary of the method: as §1

[8] = tested on: R. radiobatter ATCC 15955; assay: Growth inhibition assay (MIC); assay type: cell-based, Rhizobium radiobacter; details: multidrug resistant strain; 1% TSB, 37° C., 20 hrs
Summary of the method: as §1

[9] = tested on: E. coli BL 21 AI; assay: Growth inhibition assay (MIC); assay type: cell-based, Escherichia coli; details: 1% TSB, 37° C., 20 hrs
Summary of the method: (§2)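 Two-fold serial dilution in 1% TSB, final 125 μg/mL to 60 ng/mL; inoculum 5×10^6 CFU/mL (before 1:1 mixing with peptide). Incubated 20 hrs at 37° C., growth read as absorbance at 595 nm, in triplicate with sterile water as negative control.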

[10] = tested on: E. coli DC 2; assay: Growth inhibition assay (MIC); assay type: cell-based, Escherichia coli; details: 1% TSB, 37° C., 20 hrs
Summary of the method: as §2

[11] = tested on: M. luteus ATCC 10240; assay type: cell-based, Micrococcus luteus; details: ATCC 10240, 20 h
Summary of the method: as §2

[12] = tested on: E. coli 10233; assay type: cell-based, Escherichia coli; details: 10233, 20 h
Summary of the method: as §2

[13] = tested on: E. coli 1103; assay type: cell-based, Escherichia coli; details: 1103, 20 h
Summary of the method: as §2

[14] = tested on: K. pneumonia 681; assay type: cell-based, Klebsiella pneumoniae; details: 20 h
Summary of the method: as §2

[15] = tested on: Mycobacterium vaccae; assay type: cell-based; details: 20 h
Method: The minimal inhibition concentrations (MIC) of the apidaecin-derived peptides and peptide-derivatives were determined by a growth inhibition assay using a serial peptide dilution in sterilized round-bottom 96-well plates (polystyrene, U-bottom, Greiner Bio-One GmbH) with a final volume of 100 μL per well. The bacteria, e.g., E. coli BL21 A1, were grown in nutrient broth (NB, Carl Roth GmbH+Co. KG, Karlsruhe, Germany) at 37° C. over night. To each well of the 96-well plate, 50 μL of the overnight culture adjusted to 5×10^6 CFU/mL in 1% TSB were added. Lyophilized peptides and peptidomimetics were dissolved in 1% TSB (tryptic soy broth) or water to give a final concentration of 250 μg/mL. Fifty μL of the peptide or peptidomimetics solution were added to the first well of a row on the plate and mixed. Fifty μL of the first well containing the peptide solution were transferred to the second well, mixed and again 50 μL transferred to the next well and so on. Thereby, a two-fold dilution series was obtained starting at 250 μg/mL in the first well down to 120 ng/mL in the 12th well of a row giving a final peptide or peptidomimetics concentration from 125 μg/mL (well 1) to 60 ng/mL (well 12). Plates were incubated at 37° C. for 20 hrs. The absorbance was measured at 595 nm using a TECAN micro plate spectrophotometer (Tecan, Germany). All peptides and peptidomimetics were measured in triplicates. Sterilized water was used as a negative control.
The bacteria strains were tested: • Eschericha coli 1103, 10233, BL 21 AI, DC 2, • Klebsiella pneumoniae 681, • Micrococcus luteus ATCC 10240, • Mycobacterium vaccae • Bactillus subtillis 347.

[16] = tested on: B. subtilis 347; assay type: cell-based, Bactillus subtillis; details: 347, 20 h
Summary of the method: as §2

[17] = in vitro; assay type: in vitro ADME, mouse; details: 25% aqueous mouse serum, 37° C.; read-out: Half-life time
Summary of the method: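 Peptide or peptidomimetic (0.5 mg/mL aqueous stock) incubated in 25% pooled mouse serum at 37 °C, sampled at 0–6 h, in duplicate. Proteins precipitated with 15% TCA; supernatants neutralized and analyzed by RP-HPLC with 0.1% TFA. Degradation products identified by MALDI-TOF/TOF-MS.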

[18] = tested on: E. coli BL21 AI
Method: The induction of resistance strains was determined according to the macro dilution method under NCCLS-conditions (National Committee for Clinical Laboratory Standards—now Clinical and Laboratory Standards Institute Wayne, Pa., USA, NCCLS-Guideline, M7-A5, Vol. 20, Nr. 2; 2000).
Firstly, minimal inhibition concentrations (MIC) were determined for the peptides to be examined as described in example 3.2. To determine induction of resistance continued dilutions of the peptide with concentrations ranging from 3 fold to 4 fold above to below the MIC were chosen. The test was performed in sterile 96-well microtiter plates with round bottoms (Polystyrene, U-bottom, Greiner Bio-One GmbH, Germany) and 200 μL final volume per well. The freeze-dried peptide or peptide derivatives were dissolved in water and diluted in respect to the MIC in 1% TSB (tryptic soy broth) to obtain a volume of 100 μL. […] The dilutions within the series were twofold.
The bacteria, E. coli BL21 AI, were grown overnight at 37° C. in nutrient broth (NB, Carl Roth GmbH+Co. KG, Karlsruhe, Germany) and diluted to 5×10^6 colony forming units (CFU)/mL in 1% TSB. To start the assay 100 μL of the bacteria dilution was added per well of the microtiter plate loaded with peptide. After incubating the plates for 24 h at 37° C., the absorption was determined at 595 nm using a TECAN microtiter plate reader (Tecan, Germany).
MIC values were calculated as described in example 3.2. The test was repeated using new dilution series with peptide concentrations adapted to the new determined MIC values and using the bacteria culture that grew despite the presence of the inhibitory peptide. This bacteria culture (1st passage) was diluted to 5×10^6 CFU/mL in 1% TSB. […] The test was repeated again with using new dilution series with peptide concentrations adapted to the new determined MIC values and using the bacteria culture that grew despite the presence of the inhibitory peptide (2nd passage). The same procedure was applied for about 8 further passages.
As a control a untreated E. coli BL21 AI culture was chosen and passaged without inhibitory peptides. All peptides and peptide derivatives were measured in triplicates. The number of passages was chosen dependent on the rapidity of induction of resistance and commonly was 10 passages over 10 continuous days.

[19] = cited from earlier work

160 (Dy675-[Orn]NNRPVYIPRPRPPHPRL-NH2) [compound 160]
in vivo biodistribution (fluorescence imaging) [1]: enriched in brain, liver, and both kidneys

CC[C@H](C)[C@H](NC(=O)[C@H](Cc1ccc(O)cc1)NC(=O)[C@@H](NC(=O)[C@@H]1CCCN1C(=O)[C@H](CCCNC(=N)N)NC(=O)[C@H](CC(N)=O)NC(=O)[C@H](CC(N)=O)NC(=O)[C@H](CCCN)NC(C)=O)C(C)C)C(=O)N1CCC[C@H]1C(=O)N[C@@H](CCCNC(=N)N)C(=O)N1CCC[C@H]1C(=O)N[C@@H](CCCNC(=N)N)C(=O)N1CCC[C@H]1C(=O)N1CCC[C@H]1C(=O)N[C@@H](Cc1c[nH]cn1)C(=O)N1CCC[C@H]1C(=O)N[C@@H](CCCNC(=N)N)C(=O)N[C@@H](CC(C)C)C(N)=O [compound 39] (Ac-[Orn]NNRPVYIPRPRPPHPRL-NH2)
MIC E. coli 45849 [2]: 1 µg/mL (≈ 0.447 µM) | MIC S. typhi S5 [3]: <0.5 µg/mL | MIC E. coli D31 [4]: 4 µg/mL (≈ 1.79 µM) | MIC K. Pneumonia 123132 [5]: 4 µg/mL (≈ 1.79 µM) | MIC K. Pneumonia K6, ATCC 700603 [6]: 16 µg/mL (≈ 7.16 µM) | MIC S. enterica subsp. Enterica serovar. typhi G10215 ATCC 700408 [7]: 4 µg/mL (≈ 1.79 µM) | MIC R. radiobatter ATCC 15955 [8]: 0.33 µg/mL (≈ 0.148 µM) | MIC E. coli BL 21 AI [9]: 1.95 µg/mL (≈ 0.873 µM) | MIC E. coli DC 2 [10]: 0.98 µg/mL (≈ 0.439 µM) | MIC M. luteus ATCC 10240 [11]: 0.98 µg/mL (≈ 0.439 µM) | MIC E. coli 10233 [12]: 1.95 µg/mL (≈ 0.873 µM) | MIC E. coli 1103 [13]: 3.91 µg/mL (≈ 1.75 µM) | MIC K. pneumonia 681 [14]: 3.9 µg/mL (≈ 1.75 µM) | MIC Mycobacterium vaccae [15]: 125 µg/mL (≈ 55.9 µM) | MIC B. subtilis 347 [16]: 125 µg/mL (≈ 55.9 µM)

CC[C@H](C)[C@H](NC(=O)[C@H](Cc1ccc(O)cc1)NC(=O)[C@@H](NC(=O)[C@@H]1CCCN1C(=O)[C@H](CCCNC(=N)N)NC(=O)[C@H](CC(N)=O)NC(=O)[C@H](CC(N)=O)NC(=O)[C@H](CCCN)N=C(N(C)C)N(C)C)C(C)C)C(=O)N1CCC[C@H]1C(=O)N[C@@H](CCCNC(=N)N)C(=O)N1CCC[C@H]1C(=O)N[C@@H](CCCNC(=N)N)C(=O)N1CCC[C@H]1C(=O)N1CCC[C@H]1C(=O)N[C@@H](Cc1c[nH]cn1)C(=O)N1CCC[C@H]1C(=O)N[C@@H](CCCNC(=N)N)C(=O)N[C@@H](CC(C)C)C(N)=O [compound 88] ({Orn(α-tetramethylguanidino)}-NNRPVYIPRPRPPHPRL-NH2; N-terminus and C-terminus assumed)
half-life [17]: 15 min | MIC S. typhi S5 [3]: 0.125 µg/mL (≈ 0.0546 µM) | MIC E. coli D31 [4]: 0.5 µg/mL (≈ 0.218 µM) | MIC S. enterica subsp. Enterica serovar. typhi G10215 ATCC 700408 [7]: 0.125 µg/mL (≈ 0.0546 µM) | MIC M. luteus ATCC 10240 [11]: 1.95 µg/mL (≈ 0.851 µM) | MIC E. coli 10233 [12]: 1.95 µg/mL (≈ 0.851 µM) | MIC K. pneumonia 681 [14]: 7.81 µg/mL (≈ 3.41 µM) | MIC B. subtilis 347 [16]: 62.5 µg/mL (≈ 27.3 µM) | induction of resistance ([18]; 10 passages): no induction of resistance was observed at all

CC[C@H](C)[C@H](NC(=O)[C@H](Cc1ccc(O)cc1)NC(=O)[C@@H](NC(=O)[C@@H]1CCCN1C(=O)[C@H](CCCNC(=N)N)NC(=O)[C@H](CC(N)=O)NC(=O)[C@H](CC(N)=O)NC(=O)[C@H](CCCN)N=C(N(C)C)N(C)C)C(C)C)C(=O)N1CCC[C@H]1C(=O)N[C@@H](CCCNC(=N)N)C(=O)N1CCC[C@H]1C(=O)N[C@@H](CCCNC(=N)N)C(=O)N1CCC[C@H]1C(=O)N1CCC[C@H]1C(=O)N[C@@H](Cc1c[nH]cn1)C(=O)N1CCC[C@H]1C(=O)N[C@@H](CCCNC(=N)N)C(=O)N[C@@H](CC(C)C)C(=O)O [compound 137] ({Orn(α-tetramethylguanidino)}-NNRPVYIPRPRPPHPRL-OH; N-terminus and C-terminus assumed)
MIC S. typhi S5 [3]: <1 µg/mL | MIC E. coli D31 [4]: <1 µg/mL | MIC S. enterica subsp. Enterica serovar. typhi G10215 ATCC 700408 [7]: <1 µg/mL | MIC M. luteus ATCC 10240 [11]: 8 µg/mL (≈ 3.49 µM) | MIC E. coli 1103 [13]: 8 µg/mL (≈ 3.49 µM) | MIC K. pneumonia 681 [14]: 2 µg/mL (≈ 0.873 µM) | MIC B. subtilis 347 [16]: 64 µg/mL (≈ 27.9 µM) | induction of resistance ([18]; 10 passages): no induction of resistance was observed at all

GNNRPVYIPQPRPPHPRL [apidaecin]
degradation in mammalian serum [19]: completely degradaded within one hour

H-GNNRPVYIPQPRPPHPRL-OH [SEQ ID No. 2, GNNRPVYIPQPRPPHPRL-OH, reference compound]
passage after which first resistance strains were obtained ([18]; 10 passages): 2nd | MIC-value in the 10th passage ([18]; 10th passage): 128 µg/mL
